Consider 2 molecules from patent US7425218B2, “Nitric oxide-releasing medical devices” (The United States of America as represented by the …, priority 1992, dated 2008).

This data set can be described thus: decomposition and nitric oxide production at pH 7 and 25° C. Conditions: for half-life of decomposition: for the carbethoxy compound based on loss of the 252-nm chromophore in the UV spectrum. It is filed as physicochemical. On the procedure:
The analysis of NO adducts, i.e., polymers containing the nitric oxide-releasing N2O2^− functional group, was done on a nitric oxide analyzer and was patterned after the procedure of Maragos et al., J. Med. Chem., 34, 3242-3247 (1991). A reactor vessel fitted with a septum was charged with a small aliquot of the polymer to be studied and the system was purged with helium for several minutes to remove traces of oxygen. […]
To a solution of 510 mg (1.97 mmol) of 1-(N-acetyl-L-methionyl)piperazine in 1 ml of methanol was added 428 μl (1.97 mmol) of 25% sodium methoxide in methanol. The system was degassed and charged with 40 psi of nitric oxide. After exposure of the solution to NO for 120 h, the pressure was released and the solid product was collected by filtration, washed with ether, and dried to give 27 mg of 1-[4-(N-acetyl-L-methionyl)piperazin-l-yl]-1-oxo-2-hydroxydiazene, sodium salt, as a white solid: UV λmax (ε) 252 nm (12.0 mM^−1 cm^−1).
A solution of 20 g (0.126 mol) of ethyl 1-piperazinecarboxylate in 60 ml of methanol was placed in a Parr bottle. The solution was treated with 27.4 ml (0.126 mol) of 25% sodium methoxide in methanol. The system was evacuated, charged with 40 psi of nitric oxide and kept at 25° C. for 48 h. The white crystalline product was collected by filtration and washed with cold methanol as well as with copious amounts of ether. The product was dried under vacuum to give a 14.5 g (48%) yield of 1-(4-carbethoxypiperazin-1-yl)-1-oxo-2-hydroxydiazene, sodium salt: mp 184-5° C.; UV (0.01 M NaOH) λmax (ε) 252 nm (10.4 mM^−1 cm^−1); NMR (D2O) δ 1.25 (t, 3 H), 3.11 (m, 2 H), 3.68 (m, 2 H), 4.15 (q, 2 H). Anal Calcd. for C6H13N4O4Na: C, 35.00%; H, 5.42%; N, 23.33%; Na, 9.58%. Found: C, 34.87%; H, 5.53%; N, 23.26%; Na, 9.69%. The half-life of this compound at pH 7 and 25° C. was 5 min. This measurement was based on the loss of the 252-nm chromophore in the ultraviolet spectrum.

Structures can show the parent of a compound that is named as a salt.

Molecule `CCOC(=O)N1CCN([N+]([O-])=N[O-])CC1.[Na+]` [1-(4-carbethoxypiperazin-1-yl)-1-oxo-2-hydroxydiazene, sodium salt] came in with a half-life of decomposition of 5 min. For the molecule `CSCC[C@H](NC(C)=O)C(=O)N1CCN([N+]([O-])=NO)CC1` [1-[4-(N-acetyl-L-methionyl)piperazin-l-yl]-1-oxo-2-hydroxydiazene, sodium salt], the “moles of NO produced per mole of test agent” value was 1.72 moles of NO per mole of test agent and the half-life of decomposition is reported as 6.9 min.
